Test results reported in patent publication US20260007652A1, “Selective Modulators of AhR-Regulated Transcription and Method for Using Such Modulators to Treat Cancer” (OREGON STATE UNIVERSITY, priority 2022, published 2026).

Tests used:
H460 cells [1] = experiment: Senescence-associated beta-galactosidase staining, H460 cells; type: cell-based, human
Method: H460 cells were seeded at 2×10^5 cells/well in 6-well plate overnight and treated with indicated compounds for 5 days. Media and treatments were refreshed on the […]. Cells were stained for senescence-associated β-galactosidase (SA-βgal) using 5-dodecanoylaminofluorescein di-β-D-galactopyranoside (C12FDG). Briefly, media were aspirated and replaced with fresh media containing 0.1 μM bafilomycin A1 (Calbiochem) and incubated for 1 hour in cell culture incubator. C12FDG (Setare Biotech) was added with a final concentration of 33 μM and incubated for another hour. Fluorescent signal was recorded using CytoFlex S cytometer for 10,000 cells per sample.

H460 cells [2] = experiment: Cell cycle analysis, H460 cells; type: cell-based, human; settings: 2.5 μM, 24 hours
Method: Cells were harvested by applying trypsin-EDTA then washed twice with phosphate-buffered saline (PBS) solution, fixed with 70% ethanol for 15 minutes at room temperature and kept at −20° C. overnight. Fixed samples were washed twice with PBS and stained with Hoechst 33258 (Invitrogen, Carlsbad, CA) at the final concentration of 1 μg/ml in the 0.1% Triton X-100/PBS for 20 minutes at room temperature. DNA content was analyzed by flow cytometer for 10,000 cells per sample, singlets population was selected for further analysis and cell cycle was assigned by fitting the DNA content into Dean-Jett-Fox model using FlowJo software.

H460 cells [3] = experiment: Annexin V staining, H460 cells; type: cell-based, human; settings: 1 and 10 μM, 72 hours
Method: […] Cells were stained with Annexin-V-PerCP conjugates (eBioscience, Waltham, MA, USA) for 15 minutes on ice before washing out residual stain and resuspending in 300 μL of binding buffer. 10,000 events were collected per sample. Data was acquired with a CytoFLEX S flow cytometer (Beckman Coulter, Brea, CA), and analyzed using the CytExpert software (Beckman Coulter).

H460 cells [4] = experiment: Colony forming assay, H460 cells; type: cell-based, human; settings: 0.1-10 µM, 14 days
Method: H460 cells were seeded in 6-well plates at a density of 200 cell per well in complete growth media. 11-Cl-BBQ or DMSO were added the following day as indicated concentrations for two weeks in 1% FBS RMPI media, media and treatments were replenished twice a week. Cell colonies were fixed and stained with methylene blue in 50% ethanol solution overnight. Pictures of cell colonies were captured using the ChemiDoc imaging instrument, and quantified using OpenCFU software.

lung cancer cells = experiment: Viability of lung cancer cell lines (CellTiter Glo); type: cell-based, human; settings: 10 nM to 10 μM, 72 hours
Method: Cancer cells were seeded in 96-well plates at a density of 3,000 cells per well in their optimal culture medium supplemented with 1% FBS overnight, then compounds were added at indicated concentrations and incubated for 72 hours; otherwise, different treatment times will be specified. Cell viability was measured using the ATP-based CellTiter Glo assay (Promega-Madison, WI) following the manufacturer's protocol. Luminescent signals were recorded using the Tropix TR717 microplate luminometer. The viability of cultures following each treatment was normalized to vehicle treatment (0.1% DMSO (v/v)).

H460 cells [5] = experiment: Zebrafish tumor xenograft assay with pre-treated H460 cells; type: in vivo; settings: cells exposed to 1 μM or 5 μM for 72 hours, washed out; days 1 and 4 post-injection; AhR-expressing cells
Method: H460 AHR wildtype (CR-V2) and knockout (CR-AHR3) cells were treated with 11-Cl-BBQ (1 and 5 μM) or 0.1% DMSO as vehicle control for 72 hours in RPMI media supplemented with 1% FBS. Cells were trypsinized, dyed with cell viable dye CM-Di1 (Thermofisher), and micro-injected into zebrafish embryos. The growth cancer xenografts were monitored at one day and four days post injection. Zebrafish were housed at the Sinnhuber Aquatic Research Laboratory at Oregon State University (Corvallis, OR, USA), and experiments were conducted according to Institutional Animal Care and Use Committee protocols.

p53 = experiment: Western blot of p53 protein levels in H460 cells; type: cell-based, human
Method: Whole cell lysate was prepared in RIPA lysis buffer with 1× Laemmli buffer, then denatured by heating at 100° C. for 5 minutes. Denatured proteins were separated in SDS-PAGE gel and transferred onto PVDF membrane. The PVDF membrane was incubated in TBST with 5% nonfat dry milk for one hour at room temperature prior to incubating with primary antibody of interest overnight at 4° C. with gentle rotation. Appropriate horse radish peroxidase conjugated secondary antibody was applied for one hour at room temperature. Signal was developed by applying SuperSignal West Pico chemiluminescence substrate and captured using the ChemiDoc imaging instrument. Primary antibodies used in this study: anti-AHR antibody (BML-SA210-Enzo Biochem, Farmingdale, NY), anti-p27^Kip1 antibody (610242-BD Biosciences), anti-p53 antibody (DO-1 sc-126-Santa Cruz Biotechnology, Dallas, TX), anti-p21 antibody (2947S-Cell Signaling Technology, Danvers, MA), and anti-GAPDH antibody (sc-36502, Santa Cruz).

MDA-MB-468 cells = experiment: Annexin-V apoptosis assay, MDA-MB-468 cells; type: cell-based, human; settings: alone
Method: FIGS. 72A-72C presents the characterization of combinations on TNBC cell viability and cell death. Quantitation of Annexin-V staining of MDA-MB-468 cells treated with either 10 μM evoxine, 10 μM citropten, 0.25 μM 11-Cl-BBQ, or corresponding combinations for 72 hours (A and B, respectively). Quantifications represent averages of three independent experiments. C) Colony forming assay of MDA-MB-468 AhR-expressing and AhR KO cells treated with 100 nM Evoxine, 500 nM Citropten, […] 11-Cl-BBQ, or combinations of each compound with 11-Cl-BBQ.
Annexin-V staining was performed 48 hours post-treatment by harvesting cells (floating and attached) with trypsin, followed by addition of serum-containing media, and two washes with ice-cold PBS. Cells were stained with Annexin-V-PerCP conjugates (eBioscience, Waltham, MA, USA) for 15 minutes on ice before washing out residual stain and resuspending in 300 μL of binding buffer. 10,000 events were collected per sample. Data was acquired with a CytoFLEX S flow cytometer (Beckman Coulter, Brea, CA), and analyzed using the CytExpert software (Beckman Coulter).

cancer cell line = experiment: Cell viability of combinations of AhR ligand and synergizer (FIGS. 51, 52); type: cell-based; settings: for cell viability, monotreatments: alone (FIG. 51); for cell viability, mono-applications: alone (FIG. 52)
Method: FIG. 51 provides data from cancer cell line trials using 11-Cl-BBQ alone, Evoxine alone, Citropten alone, and combinations comprising 11-Cl-BBQ and Citropten and 11-Cl-BBQ and Evoxine. […] The decrease in cell viability was more than additive. Specifically, for Evoxine in combination with Analog 523, the reduction in cell viability was: 31% at 1 μM; 41% at 3 μM; and 42% at 10 μM. For Citropten in combination with Analog 523, the reduction in cell viability was: 16% at 1 μM; 34% at 3 μM; and 43% at 10

HepG2 cells = experiment: Colony forming assay, HepG2 cells; type: cell-based, human; settings: alone
Method: FIGS. 75A-75C compare the effects of 11-Cl-BBQ and Evoxine in hepatoma: A) Mouse Hepa-1 cells were treated with 11-Cl-BBQ, Evoxine either alone or in combination for 48 hours before assessing cell viability using Cell-Titer Glo Viability Assay. B) Hepa-1 cells treated with Evoxine, 11-Cl-BBQ either alone or in combination for 48 hours with induction of cell death measured by Annexin-V staining and detection by flow cytometry. C) Colony forming assay of HepG2 human hepatocellular carcinoma cells seeded at 300 cell/well in a 24-well plate before treatment with 11-Cl-BBQ, Evoxine either alone or in combination at the indicated concentrations for two weeks, followed by fixation and staining with methylene blue. Quantitation of colonies is shown on the right.
Cells were seeded at a density of 500 cell/well in triplicate in 6-well plates, and the following day, cells were treated with compounds and allowed to incubate for 2-3 weeks before fixation with 50% ethanol/water solution containing 0.1% methylene blue overnight. Colonies were counted manually, or with OpenCFU colony counting software, Images were acquired on a ChemiDoc imaging instrument.

[6] = Dose studies in mice, serum concentration; type: in vivo, mouse
AhR = experiment: Xenobiotic response element (XRE) driven reporter in Hepa-1 cells, AhR activation; type: cell-based, mouse
Method: FIGS. 69A-69D show representative 11-Cl-BBQ analogs (848 and 849) as non-classical AHR ligands. (A) Stability of AHR protein in the H460 whole cell lysate in the presence or absence of 11-Cl-BBQ (5 μM), PRXS-848 (10 μM), and PRXS-849 (10 μM) at the indicated temperatures; GADPH was used as a loading control. (B) Localization of AHR protein in the H460 treated with 11-Cl-BBQ (100 nM), PRXS-848 (250 nM), PRXS-849 (250 nM), or vehicle control (0.1% DMSO) for two hours; top horizontal panel: AHR protein staining using an AHR-specific antibody conjugated with FITC (green) fluorophore; middle panel: DAPI staining; bottle panel: overlaid images from the top panel and the middle panel in the same column. (C) AHR activation (measured by XRE-luciferase reporter assay in Hepa1 cells) of the parental lead 11-Cl-BBQ and analogs PRXS-848 and PRXS-849 at the indicated concentrations for 16 hours. (D) AHR activation of 11-Cl-BBQ cotreated with a known AHR antagonist CH223191 (1 μM) or 11-Cl-BBQ analogs PRXS-848 and PRXS-849 at the indicated concentrations for 16 hours.
FIG. 76 presents representative AhR compounds (BBQ analogs) of the invention effective for activation of AhR transcription. Activation values greater than 1 at 100 nM were considered a hit with nanomolar affinity to promote AhR activity and synergize with the identified compounds from the synergy screens. Referring to FIG. 76, Fold@ 1 nM refers to activation of AhR transcription at 1 nM; Fold@100 nM refers to activation of AbR transcription at 100 nM; and Fold rel @ 100 refers to relative activation at 100 nM compared to parental compound, 11-Cl-BBQ. The representative AhR ligand compounds presented in FIG. 76 activate AhR transcription and therefore are useful as anti-cancer agents, either alone or in combination with the synergizing compounds (and chemotherapeutic agents) described herein.
was identified as a top hit compound based on its potent (>50% inhibition at 0.1 μM), and selective activity against AhR WT cells versus AhR KO cells (>70% difference between WT and KO cells at 10 μM) (FIG. 11). […] This confirmed Analog 523 activates AhR-mediated transcription and functions as an AhR ligand.

COc1cccc2c1C(=O)c1c(O)c3c(c(O)c1C2=O)C[C@@](O)(C(=O)CO)C[C@@H]3O[C@H]1C[C@H](N)[C@H](O)[C@H](C)O1 [doxorubicin, reference compound]
SA-β-gal expression (H460 cells [1]; Dox 50 nM, 5 days): induced SA-β-gal expression independent of the AhR status

O=c1c2cccc3cccc(c32)c2nc3cc(Cl)ccc3n12 [Analog 11-Cl-BBQ]
cells in S-phase (H460 cells [2]; vehicle 35%): 15% | cells in G1 phase (H460 cells [2]; vehicle 45%): > 70% | Annexin V staining (cell death) (H460 cells [3]): negative for Annexin V staining | SA-β-gal expression (H460 cells [1]; 2.5 μM for 120 h, AhR-dependent): significant increase in SA-β-gal expression | colony formation of AhR-expressing H460 cells (H460 cells [4]): strongly inhibited colony formation | growth of lung cancer cells (lung cancer cells): decreased the growth of lung cancer cells in a dose-dependent manner | growth of cancer cell xenografts (H460 cells [5]): significantly lower growth | p53 protein levels (p53; 5 μM, from 4 h, further at 6 and 9 h): increased p53 protein levels | apoptotic response (Annexin-V staining) (MDA-MB-468 cells; 0.25 μM): 7.3% | cell viability, monotreatments (cancer cell line): little effect | HepG2 colony formation (HepG2 cells; 10 μM): little effect on colony formation inhibition | concentration detected in mouse serum ([6]; 2 mg/Kg intravenous administration): up to 1.6 μM | concentration detected in mouse serum ([6]; 8 mg/Kg oral administration): 3000 nM

COC(=O)c1ccc2nc(-c3cccc4ccccc34)n(C(=O)c3ccc(F)c(F)c3)c2c1 [PRXS-849]
activation of AhR transcription (FIG. 76) (AhR): did not activate AhR

COC(=O)c1ccc2c(c1)nc(-c1cccc3ccccc13)n2C(=O)c1ccc(F)c(F)c1 [PRXS-848]
activation of AhR transcription (FIG. 76) (AhR): did not activate AhR

COc1cc(OC)c2ccc(=O)oc2c1 [Citropten, citropten]
apoptotic response (Annexin-V staining) (MDA-MB-468 cells; 10 μM): 2.7% | cell viability, monotreatments (cancer cell line): little effect | cell viability, mono-applications (cancer cell line): largely ineffective in reducing cell viability

Clc1cc2c(cc1Cl)Oc1cc(Cl)c(Cl)cc1O2 [TCDD, reference compound]
expression of p53 protein (p53; TCDD 30 nM): not altered

COc1c2ccoc2nc2c(OC)c(OC[C@@H](O)C(C)(C)O)ccc12 [Evoxine]
apoptotic response (Annexin-V staining) (MDA-MB-468 cells; 10 μM): 0.5% | cell viability, monotreatments (cancer cell line): little effect | cell viability, mono-applications (cancer cell line): largely ineffective in reducing cell viability | HepG2 colony formation (HepG2 cells; 2.5 μM): little effect on colony formation inhibition
